Drawing on ChEMBL document CHEMBL5584228, “Novel saturated 1,2,4-trioxanes and their antimalarial activity against multidrug resistant Plasmodium yoelii nigeriensis in Swiss mice model via oral route” (2024), this text covers Activity and Survival for 34 compounds.

In assay [1] the test system is Plasmodium yoelii nigeriensis. Put plainly: Antimalarial activity against multi-drug resistant Plasmodium yoelii nigeriensis infected in swiss mouse model assessed as suppression of parasitemia at 96 mg/kg, po administered for 4 days relative to control. The format is functional. The following applies: time 4 day.
For assay [2], the system named is Plasmodium yoelii nigeriensis. As to the kind of experiment: Antimalarial activity against multi-drug resistant Plasmodium yoelii nigeriensis infected in swiss mouse model at 96 mg/kg, po administered for 4 days and measured within 6 to 8 days. The format is functional, organism-based. The following applies: time 6-8 day.
Assay [3] deals with Plasmodium yoelii nigeriensis. As to the kind of experiment: Antimalarial activity against multi-drug resistant Plasmodium yoelii nigeriensis infected in swiss mouse model assessed as suppression of parasitemia at 24 mg/kg, po administered for 4 days relative to control. The assay is classed as functional. Particulars: time 4 day.
For assay [4], the system named is Plasmodium yoelii nigeriensis. Put plainly: Antimalarial activity against multi-drug resistant Plasmodium yoelii nigeriensis infected in swiss mouse model assessed as suppression of parasitemia at 48 mg/kg, po administered for 4 days relative to control. The assay is classed as functional. Particulars: time 4 day.
For assay [5], the system named is Plasmodium yoelii nigeriensis. Put plainly: Antimalarial activity against multi-drug resistant Plasmodium yoelii nigeriensis infected in swiss mouse model assessed as suppression of parasitemia at 12 mg/kg, po administered for 4 days relative to control. The assay is classed as functional. Particulars: time 4 day.
For assay [6], the system named is Plasmodium yoelii nigeriensis. Put plainly: Antimalarial activity against multi-drug resistant Plasmodium yoelii nigeriensis infected in swiss mouse model at 48 mg/kg, po administered for 4 days and measured within 6 to 8 days. The following applies: time 6-8 day. The format is functional, organism-based.
Assay [7] has as its system Plasmodium yoelii nigeriensis. Put plainly: Antimalarial activity against multi-drug resistant Plasmodium yoelii nigeriensis infected in swiss mouse model at 24 mg/kg, po administered for 4 days and measured within 6 to 8 days. The format is functional, organism-based. The following applies: time 6-8 day.
Assay [8] deals with Plasmodium yoelii nigeriensis. Put plainly: Antimalarial activity against multi-drug resistant Plasmodium yoelii nigeriensis infected in swiss mouse model at 12 mg/kg, po administered for 4 days and measured within 6 to 8 days. The assay is classed as functional, organism-based. Particulars: time 6-8 day.
The subject of assay [9] is Plasmodium yoelii nigeriensis. Put plainly: Antimalarial activity against multi-drug resistant Plasmodium yoelii nigeriensis infected in swiss mouse model assessed as animal survival at 12 to 48 mg/kg, po administered for 4 days and measured after 28 days. The format is functional. Particulars: dose 12-48 mg/kg, time 28 day.
For assay [10], the system named is Plasmodium yoelii nigeriensis. As to the kind of experiment: Antimalarial activity against multi-drug resistant Plasmodium yoelii nigeriensis infected in swiss mouse model assessed as suppression of parasitemia at 6 mg/kg, po administered for 4 days relative to control. The assay is classed as functional. The following applies: time 4 day.

Activity calls are given as the source filed them. The rule behind the calls is not given here.

As for `C=C(c1ccc(Oc2ccccc2)cc1)C1COC2(CCCC2)OO1` (stereo not drawn), in assay [1], the Activity is recorded as 100%.
Take `C[C@@H](c1ccc(Oc2ccccc2)cc1)C1COC2(CCCC2)OO1` (stereo partly drawn): the Activity in assay [1] amounted to 80%. Further, in assay [2], the result was inactive.
Consider `C=C(c1ccc(Oc2ccc3ccccc3c2)cc1)C1COC2(OO1)C1CC3CC(C1)CC2C3` (stereo not drawn), for which the Activity in assay [1] was determined as 100%.
As to `C[C@@H](c1ccc(Oc2ccc3ccccc3c2)cc1)C1COC2(OO1)C1CC3CC(C1)CC2C3` (stereo partly drawn), in assay [1], the Activity is 100%. Further, the outcome in [2] was inactive.
With `C[C@H](c1ccc(Oc2ccc(-c3ccccc3)cc2)cc1)C1COC2(CCCCC2)OO1` (stereo partly drawn), the Activity in assay [1] is 100%.
As for `C=C(c1ccc(Oc2cccc3ccccc23)cc1)C1COC2(OO1)C1CC3CC(C1)CC2C3` (stereo not drawn), in assay [1], the Activity was found to be 93.15%. Moreover, the result in assay [2] was inactive.
Consider `C=C(c1ccc(Oc2ccc(-c3ccccc3)cc2)cc1)C1COC2(OO1)C1CC3CC(C1)CC2C3` (stereo not drawn), for which the Activity in [1] was 100%.
For `C[C@H](c1ccc(Oc2cccc3ccccc23)cc1)C1COC2(CCCC2)OO1` (stereo partly drawn), the values for the Activity in assay [3], in assay [4] and in assay [5] were 100%, 100% and 80%, respectively.
Turning to `C=C(c1ccc(Oc2ccccc2)cc1)C1COC2(CCCCC2)OO1` (stereo not drawn), the Activity in [1] stood at 100%.
For `C=C(c1ccc(Oc2ccccc2)cc1)C1COC2(OO1)C1CC3CC(C1)CC2C3` (stereo not drawn), the Activity in assay [1] is listed as 100%.
In the case of `CCO[C@H]1O[C@@H]2O[C@@]3(C)CC[C@H]4[C@H](C)CC[C@@H]([C@H]1C)[C@@]24OO3` [ARTEMOTIL], the Activity in [3] and in assay [4] was 100% each time. The result in assay [6] was Active.
In the case of `C[C@@H](c1ccc(Oc2ccc(-c3ccccc3)cc2)cc1)C1COC2(OO1)C1CC3CC(C1)CC2C3` (stereo partly drawn), in [1], the Activity turned out to be 90%. Further, in assay [2], the result was inactive.
In the same order, the values of `C[C@@H](c1ccc(Oc2ccc(-c3ccccc3)cc2)cc1)C1COC2(CCCCC2)OO1` (stereo partly drawn) are 100% and “inactive”.
In the case of `C[C@H](c1ccc(Oc2ccc(-c3ccccc3)cc2)cc1)C1COC2(CCCC2)OO1` (stereo partly drawn), the Activity stood at 100% in assay [3], 100% in assay [4] and 60% in [5].
On to `C[C@@H](c1ccc(Oc2ccc(-c3ccccc3)cc2)cc1)C1COC2(CCCC2)OO1` (stereo partly drawn), for which the Activity in assay [1] was 100%. Also, the result in [2] was inactive.
For `C[C@@H](c1ccc(Oc2cccc3ccccc23)cc1)C1COC2(OO1)C1CC3CC(C1)CC2C3` (stereo partly drawn), in assay [1], the Activity came out at 70%. The result in [2] was inactive.
Turning to `C[C@H](c1ccc(Oc2ccc3ccccc3c2)cc1)C1COC2(OO1)C1CC3CC(C1)CC2C3` (stereo partly drawn), the Activity in assay [1] is given as 100%; in [4], 60%. The outcome in [2] was Active.
As to `C=C(c1ccc(Oc2ccc3ccccc3c2)cc1)C1COC2(CCCC2)OO1` (stereo not drawn), the Activity in assay [3], in [1] and in assay [4] was 100% each time. Besides, the outcome in [7] was inactive. In addition, the outcome in [2] and in assay [6] was Active.
For `C[C@@H](c1ccc(Oc2ccc3ccccc3c2)cc1)C1COC2(CCCC2)OO1` (stereo partly drawn), the Activity in [1] and in assay [4] was 100% each time. Further, the outcome in assay [2] was Active.
For `C[C@@H](c1ccc(Oc2ccccc2)cc1)C1COC2(OO1)C1CC3CC(C1)CC2C3` (stereo partly drawn), in assay [1], the Activity is listed as 100%. For the same compound, in assay [2], the outcome was inactive.
For `C[C@H](c1ccc(Oc2ccccc2)cc1)C1COC2(CCCCC2)OO1` (stereo partly drawn), the Activity in assay [1] amounted to 100%; in assay [4], 80%. Besides, the outcome in assay [2] was Active.
In the case of `C[C@H](c1ccc(Oc2cccc3ccccc23)cc1)C1COC2(CCCCC2)OO1` (stereo partly drawn), in assay [1], the Activity turned out to be 100%.
For `C=C(c1ccc(Oc2ccc(-c3ccccc3)cc2)cc1)C1COC2(CCCCC2)OO1` (stereo not drawn), the Activity in assay [1] stood at 84.39%. In [2], the result was inactive.
In the same order, the values of `C[C@@H](c1ccc(Oc2cccc3ccccc23)cc1)C1COC2(CCCC2)OO1` (stereo partly drawn) are 100% and “inactive”.
As to `C[C@H](c1ccc(Oc2ccc(-c3ccccc3)cc2)cc1)C1COC2(OO1)C1CC3CC(C1)CC2C3` (stereo partly drawn), the Activity in assay [1] and in assay [4] was 100% throughout. Also, the outcome in assay [2] was Active.
Take `C[C@H](c1ccc(Oc2cccc3ccccc23)cc1)C1COC2(OO1)C1CC3CC(C1)CC2C3` (stereo partly drawn): the Activity in assay [1] is 100%.
For `C=C(c1ccc(Oc2cccc3ccccc23)cc1)C1COC2(CCCCC2)OO1` (stereo not drawn), in assay [1], the Activity turned out to be 92.81%. Also, in assay [2], the outcome was inactive.
For the compound `C[C@H](c1ccc(Oc2ccccc2)cc1)C1COC2(OO1)C1CC3CC(C1)CC2C3` (stereo partly drawn), the Activity in assay [1] and in assay [4] was 100% in each case. In addition, the result in assay [2] was Active.
Consider `C[C@@H](c1ccc(Oc2ccccc2)cc1)C1COC2(CCCCC2)OO1` (stereo partly drawn), for which the Activity in [1] came to 100%. Besides, the outcome in assay [2] was inactive.
As for `C=C(c1ccc(Oc2cccc3ccccc23)cc1)C1COC2(CCCC2)OO1` (stereo not drawn), the Activity in assay [3], in assay [1] and in [4] was 100% in each case. Further, the result in assay [7] was inactive. Moreover, the result in assay [2] and in [6] was Active.
In the case of `C=C(c1ccc(Oc2ccc(-c3ccccc3)cc2)cc1)C1COC2(CCCC2)OO1` (stereo not drawn), the Activity in [1] and in [4] was 100% throughout. The result in [2] was Active. Also, in assay [6], the outcome was inactive.
In the case of `C[C@@H](c1ccc(Oc2cccc3ccccc23)cc1)C1COC2(CCCCC2)OO1` (stereo partly drawn), the Activity in assay [1] is 100%. Further, the outcome in [2] was inactive.
On to `C[C@H](c1ccc(Oc2ccccc2)cc1)C1COC2(CCCC2)OO1` (stereo partly drawn), for which the Activity is on record as 100% in [1] and 60% in assay [4]. Moreover, the result in assay [2] was Active.
Turning to `C[C@H](c1ccc(Oc2ccc3ccccc3c2)cc1)C1COC2(CCCC2)OO1` (stereo partly drawn), in assay [8], the outcome was Active. Further, the Survival in [9] is greater than 28 days. For the same compound, the Activity in assay [10] was found to be 60%; in [3] it was 100%; in assay [4], 100%; in [5] it was 100%.
